Paper PMC8268987, “In Search of Effective Anticancer Agents—Novel Sugar Esters Based on Polyhydroxyalkanoate Monomers” (International Journal of Molecular Sciences, 2021)
Where two headings read alike, the source gives them in different places.

Columns and labels:
[1] = test system: HTB140 cells; experiment: Nuclei roundness by image analysis, HTB140; format: cell-based, human; conditions: 0.0625 mg mL^–1; for nuclei circularity index: HTB140, after the first 24 h
Protocol: (§1) Cellular studies 12-well plates were used, cell density 3 × 10^5 per well. After 24 h and 48 h of incubation with tested compounds (0.0625 mg mL^–1), the samples were fixed according to standard protocol. Tubulin (green; AlexaFluor-488 mouse anti-β-tubulin IgG; BD Biosciences, San Jose, CA, USA, Pharminogen; cat. 558605), vimentin (infra-red; I: rabbit-anti-vimentin IgG; GeneTex, Irvine, CA, USA; GTX100619; II: chicken-anti-rabbit-AlexaFluor647 IgG; ThermoFisher, Waltham, MA, USA) and counterstained nuclei (blue; Hoechst 33258; Sigma-Aldrich, Darmstadt, Germany) and F-actin (red; AlexaFluor546-phalloidin; ThermoFisher, Waltham, MA, USA). Next, the samples were washed 5 times with deionized water and prepared for imaging with Fluorescent Mounting Medium (Dako Omnis, Agilent, Santa Clara, CA, USA). Microscopic measurements and observations were carried out with the use of fluorescent techniques performed on Zeiss Axio Observer Z.1 microscope with LSM 710 module (Carl Zeiss Microscopy GmbH Carl-Zeiss-Promenade 10, 07745 Jena, Germany). Image acquisition, processing, deconvolution and analysis were performed using Zeiss ZEN Black software ver. 8.1.0.484 and FluoRender 2.21.0. An oil immersion 40×/NA:1.4 lens was used for observations. Parameters used for acquisition of cell morphology were: nucleus—blue channel (405 nm); microtubular network—green channel (488 nm); Actin—red channel (546 nm); vimentin—far red channel (647 nm).

[2] = test system: normal (control) and cancer cell lines; experiment: MTT cytotoxicity assay, summary statements over the tested cell lines; format: cell-based, human; conditions: data not shown
[3] = test system: HSF human skin fibroblasts; experiment: MTT cytotoxicity assay, HSF (control); conditions: 72 h
Protocol: (§3) The following cell lines were used: human prostate cancer cells from metastases to the brain DU145 (ATCC® HTB-81™, Manassas, Virginia); healthy human prostate epithelial cell line as a control (PNT2; Sigma-Aldrich, Darmstadt, Germany); human melanoma Hs 294T (ATCC® HTB-140™, Manassas, Virginia); human epidermal keratinocytes (HaCaT) HEK001 (ATCC® CRL-2404™, Manassas, Virginia); and normal human skin fibroblasts BJ (ATCC® CRL2522™) as controls. The cells were cultured in 37 °C with humidified atmosphere enriched with 5% CO2 in appropriate cell culture media: DMEM F12Ham (Sigma-Aldrich, Darmstadt, Germany) + 5% FBS (Thermo Fisher Scientific; Gibco; Waltham, MA, USA); RPMI-1640 (Sigma-Aldrich, Darmstadt, Germany) + 10% FBS (Thermo Fisher Scientific; Gibco; Waltham, MA, USA); DMEM high glucose (Sigma-Aldrich) + 10% FBS (Thermo Fisher Scientific; Gibco; Waltham, MA, USA); DMEM low glucose (Sigma-Aldrich, Darmstadt, Germany) + 10% FBS (Thermo Fisher Scientific; Gibco; Waltham, MA, USA). All media contained a penicillin/streptomycin (Sigma-Aldrich, Darmstadt, Germany) cocktail.
(§4) For the determination of the cytotoxic effect of tested compounds, normal (control) and cancer cell lines cells were tested at a concentration of 2.5 × 10^4 cells cm^–^2 in appropriate culture medium into 96 well microplates (VWR, Radnor, PA, USA). Cells were preincubated with four different concentrations of tested compounds: 0.5, 0.25, 0.125 and 0.0625 mg mL^–1 for 24 h, 72 h and 120 h in cell incubator. After the incubation, MTT labelling reagent (final concentration 0.5 mg mL^–1) and solubilizing solution were added according to the protocol. The samples absorbance was measured using a microplate reader (Multiscan FC; Thermo Fisher Scientific, Waltham, MA, USA) by 570 nm wavelength, 620 nm for reference.

[4] = test system: HaCAT human skin keratynocytes; experiment: MTT cytotoxicity assay, HaCAT (control); conditions: 72 h
Protocol: as §3, §4

[5] = test system: DU145 prostate cancer cells; experiment: MTT cytotoxicity assay, DU145
Protocol: as §3, §4

[6] = test system: HaCAT human skin keratynocytes
Protocol: as §3, §4

[7] = test system: HSF human skin fibroblasts
Protocol: as §3, §4

[8] = test system: HTB140 human skin melanoma cells; experiment: MTT cytotoxicity assay, HTB140
Protocol: as §3, §4

[9] = test system: PNT2 prostate epithelium cells; experiment: MTT cytotoxicity assay, PNT2 (control)
Protocol: as §3, §4

[10] = test system: DU145 cells; experiment: Nuclei roundness by image analysis, DU145; format: cell-based, human; conditions: DU145, after 48 h, 0.0625 mg mL^–1
Protocol: as §1, with “Parameters used for acquisition of cell morphology were: nucleus—blue channel (405 nm); microtubular network—green channel (488 nm); Actin—red channel (546 nm); vimentin—far red channel (647 nm).” left out

[11] = test system: HTB140 cells; experiment: Transmigration assay (Boyden's chamber), HTB140; format: cell-based, human; conditions: HTB140, 96 h, 0.0625 mg mL^–1, relative to sugar control
Protocol: (§2) Transmigration assay was performed using 24-well glass-bottom plate (Eppendorf) containing microporous membranes in Boyden’s chamber (Corning; pore diameter: 8 μm; membrane diameter: 6.5 mm). Native DU145 and HTB140 cells were seeded at density of 3 × 10^5 cells per membrane with tested compounds (0.0625 mg mL^–1) and left for 48 and 96 h for transmigration. The transmigrating cells were fixed with 3.7% formaldehyde and counted. The result is presented as a reference to the rate of cell proliferation in the corresponding compound.

[12] = test system: DU145 cells; experiment: Transmigration assay (Boyden's chamber), DU145; format: cell-based, human; conditions: DU145, 96 h, 0.0625 mg mL^–1, transmigration/proliferation ratio relative to sugar control
Protocol: as §2

[13] = test system: Jurkat (Human T-cell leukemia); parameters: method as in doi:10.1002/app.47192, PMID 29904629; conditions: cited from earlier work

Row | IC50 [6] [mM] | Compound | nuclei circularity index [1] | cytotoxicity in the MTT test (in words) [2] | IC50 [3] [mM] | IC50 [4] [mM] | IC50 ([5]; DU145, 24 h) [mM] | IC50 ([5]; DU145, 72 h) [mM] | IC50 ([5]; DU145, 120 h) [mM] | IC50 ([8]; HTB140, 24 h) [mM] | IC50 ([8]; HTB140, 72 h) [mM] | IC50 ([8]; HTB140, 120 h) [mM] | IC50 ([9]; PNT2, 24 h) [mM] | IC50 ([9]; PNT2, 72 h) [mM] | IC50 ([9]; PNT2, 120 h) [mM] | other results
1 |  | O=C[C@H](O)[C@@H](O)[C@@H](O)[C@H](O)CO [gal, β-d-galactopyranose, reference compound] | smallest round nuclei | low cytotoxicity |  |  |  |  |  |  |  |  |  |  |  | 
2 |  | OC[C@H]1OC(O)[C@H](O)[C@@H](O)[C@@H]1O (stereo partly drawn) [glu, α-D-glucopiranose, reference compound] | smallest round nuclei | low cytotoxicity |  |  |  |  |  |  |  |  |  |  |  | 
3 | 1.56 | galactose nonanoic ester [C9-gal] |  |  | 1.56 | 1.56 | 1.56 | 0.78 | 1.56 | 1.66 | 1.56 | 1.56 | 2.39 | 1.23 | 2.36 | IC50 [7]: 1.56 mM
4 |  | lactose nonanoic ester [C9-lac] | highest circularity index |  | 0.92 | 0.92 | 0.92 | 0.84 | 0.46 | 0.62 | 0.92 | 0.81 | 1.71 | 0.92 | 1.74 | change of nuclei shape (decrease in roundness index) ([1]; HTB140, after the next 24 h (48 h)): biggest change; change of nuclei roundness [10]: decrease in nucleus roundness index; IC50 ([5]; read-out: Cytotoxicity of SFAE determined by MTT assay (IC50), Supplementary Table 2, DU145, 72 h, standard deviation on line d below): 0.837 mM; IC50 ([5]; read-out: Cytotoxicity of SFAE determined by MTT assay (IC50), Supplementary Table 2, DU145, 120 h, standard deviation on line d below): 0.46 mM; decrease of transmigration [11]: 16%; reduction of transmigration [12]: 25%; IC50 ([8]; read-out: Cytotoxicity of SFAE determined by MTT assay (IC50), Supplementary Table 2, HTB 140, 24 h, standard deviation on line d below): 0.622 mM; IC50 ([8]; read-out: Cytotoxicity of SFAE determined by MTT assay (IC50), Supplementary Table 2, HTB 140, 120 h, standard deviation on line d below): 0.805 mM; IC50 ([9]; read-out: Cytotoxicity of SFAE determined by MTT assay (IC50), Supplementary Table 2, PNT2, 24 h, standard deviation on line d below): 1.71 mM; IC50 ([9]; read-out: Cytotoxicity of SFAE determined by MTT assay (IC50), Supplementary Table 2, PNT2, 120 h, standard deviation on line d below): 1.74 mM
5 | 1.43 | mixture of (3R)-hydroxynonanoate glucose esters and (3R)-hydroxyheptanoate glucose esters [mPHN-glu] |  |  |  |  |  |  |  |  |  |  |  |  |  | 
6 |  | octanoic acid glucose ester |  |  |  |  |  |  |  |  |  |  |  |  |  | IC50 [13]: 0.12 mM
